# Tested on: melanocytes of human skin biopsies
# Experiment: Ex vivo study of the effect of the peptide on the synthesis of melanin (human skin biopsies, Fontana-Masson staining)
# Format: cell-based
# Settings: human skin biopsies 6 mm in ex vivo culture, two applications daily, peptide at 1% starting with a 50-ppm solution, 48 hours
# Experimental: The aim of this ex vivo study is to highlight the increase in melanization produced by the peptides according to the invention.
# Protocol: Biopsies of human skin 6 mm in diameter are held in an ex vivo culture in the presence of a specific medium (1 g/L DMEM, Ham's F-12, SVF, and antibiotics) on inserts deposited on 6-well plates. […] The duration of the treatment is 48 hours. The biopsies are subsequently fixed in 9% formaldehyde and NaCl (150 mM) for 10 hours and then enclosed in paraffin. Thin-sections of the skin 3 μm thick are then made, and the melanin is specifically stained by the Fontana-Masson technique. […] Conclusions: The peptide of sequence of SEQ ID No. 4 induces a strong increase in the synthesis of melanin by the melanocytes and stimulates the entire process of melanin distribution in the epidermis.
substance,measurement,setting,value
Trp-Lys-Leu-Asp (WKLD) [SEQ ID No. 4],location / distribution of melanin in the epidermis,Fontana-Masson staining,located in the basal layer but is also transported into the supra-basal layers
same,intensity of melanin coloration of skin thin-sections (Fontana-Masson technique),versus biopsies without application,coloration of clearly increased intensity
